# Reference: ChEMBL document CHEMBL3779769, “Indole-2-carboxylic acid derived mono and bis 1,4-disubstituted 1,2,3-triazoles: Synthesis, characterization and evaluation of anticancer, antibacterial, and DNA-cleavage activities” (Bioorg Med Chem Lett, 2016)
# Calls of active or inactive are those of the source. No cut-off for these calls is given here.
# Experiments:
# [1] = system: Escherichia coli; test: Antibacterial activity against Escherichia coli MTCC 443 by broth dilution method; assay type: functional
# [2] = system: Staphylococcus aureus; test: Antibacterial activity against Staphylococcus aureus MTCC 96 by broth dilution method; assay type: functional
# [3] = system: Proteus vulgaris; test: Antibacterial activity against Proteus vulgaris MTCC 1771 by broth dilution method; assay type: functional
# [4] = system: Bacillus subtilis; test: Antibacterial activity against Bacillus subtilis MTCC 441 by broth dilution method; assay type: functional
# [5] = system: MCF7; test: Cytotoxicity against human MCF7 cells assessed as cell viability after 48 hrs by MTT assay; assay type: functional, cell-based; settings: MCF7, 48 h
# [6] = system: HeLa; test: Cytotoxicity against human HeLa cells assessed as cell viability after 48 hrs by MTT assay; assay type: functional, cell-based
# [7] = system: HEK293; test: Cytotoxicity against HEK293 cells assessed as cell viability after 48 hrs by MTT assay; assay type: cell-based; settings: Homo sapiens, HEK293, 48 h
# [8] = Anticancer activity against mouse EAC cells xenografted in Swiss albino mouse assessed as tumor volume at 10 mg/kg, ip administered for 9 days measured after 14 days (reference value: 12.15 +/- 0.5 ml); assay type: functional, Ehrlich
# [9] = Anticancer activity against mouse EAC cells xenografted in Swiss albino mouse assessed as packed cell volume at 10 mg/kg, ip administered for 9 days measured after 14 days […] (reference value: 2.62 +/- 0.5 ml); assay type: functional, Ehrlich
# [10] = Anticancer activity against mouse EAC cells xenografted in Swiss albino mouse assessed as viable tumor cell count at 10 mg/kg, ip administered for 9 days measured after 14 days by trypan blue incorporation method (reference value: 7.30 +/- 0.6 10^7/ml); assay type: functional, Ehrlich
# [11] = system: Mus musculus; test: Effect on hemoglobin level in Swiss albino mouse xenografted with mouse EAC cells at 5 mg/kg, ip administered for 9 days measured on day 14 (reference value: 5.67 +/- 0.8 g%); assay type: functional, Ehrlich
# [12] = system: Mus musculus; test: Effect on RBC level in Swiss albino mouse xenografted with mouse EAC cells at 5 mg/kg, ip administered for 9 days measured on day 14 (reference value: 3.01+/- 0.75 10^6/mm3); assay type: functional, Ehrlich
# [13] = system: Mus musculus; test: Effect on WBC level in Swiss albino mouse xenografted with mouse EAC cells at 5 mg/kg, ip administered for 9 days measured on day 14 (reference value: 22.07 +/- 0.11 10^3/mm3); assay type: functional, Ehrlich
# [14] = system: Mus musculus; test: Effect on SGPT level in Swiss albino mouse xenografted with mouse EAC cells at 5 mg/kg, ip administered for 9 days measured on day 14 (reference value: 55.3 +/- 0.52 IU/L); assay type: functional, Ehrlich
# [15] = system: Mus musculus; test: Effect on SGOT level in Swiss albino mouse xenografted with mouse EAC cells at 5 mg/kg, ip administered for 9 days measured on day 14 (reference value: 116.04 +/- 0.14 IU/L); assay type: functional, Ehrlich
# [16] = system: Mus musculus; test: Effect on total protein level in Swiss albino mouse xenografted with mouse EAC cells at 5 mg/kg, ip administered for 9 days measured on day 14 (reference value: 7.84 +/- 0.36 […]); assay type: functional, Ehrlich
# [17] = system: Mus musculus; test: Effect on hemoglobin level in Swiss albino mouse xenografted with mouse EAC cells at 10 mg/kg, ip administered for 9 days measured on day 14 (reference value: 5.67 +/- 0.8 g%); assay type: functional, Ehrlich
# [18] = system: Mus musculus; test: Effect on RBC level in Swiss albino mouse xenografted with mouse EAC cells at 10 mg/kg, ip administered for 9 days measured on day 14 (reference value: 3.01+/- 0.75 10^6/mm3); assay type: functional, Ehrlich
# [19] = system: Mus musculus; test: Effect on WBC level in Swiss albino mouse xenografted with mouse EAC cells at 10 mg/kg, ip administered for 9 days measured on day 14 (reference value: 22.07 +/- 0.11 10^3/mm3); assay type: functional, Ehrlich
# [20] = system: Mus musculus; test: Effect on SGPT level in Swiss albino mouse xenografted with mouse EAC cells at 10 mg/kg, ip administered for 9 days measured on day 14 (reference value: 55.3 +/- 0.52 IU/L); assay type: functional, Ehrlich
# [21] = system: Mus musculus; test: Effect on SGOT level in Swiss albino mouse xenografted with mouse EAC cells at 10 mg/kg, ip administered for 9 days measured on day 14 (reference value: 116.04 +/- 0.14 IU/L); assay type: functional, Ehrlich
# [22] = system: Mus musculus; test: Effect on total protein level in Swiss albino mouse xenografted with mouse EAC cells at 10 mg/kg, ip administered for 9 days measured on day 14 (reference value: 7.84 +/- 0.36 […]); assay type: functional, Ehrlich
# [23] = system: Mus musculus; test: Effect on body weight in Swiss albino mouse xenografted with mouse EAC cells at 5 mg/kg, ip administered for 9 days (reference value: 13.57 +/- 0.4 g); assay type: functional, Ehrlich
# [24] = Anticancer activity against mouse EAC cells xenografted in Swiss albino mouse assessed as mean survival time at 5 mg/kg, ip administered for 9 days measured for 30 days (reference value: 12.8 +/- 0.7 days); assay type: functional, Ehrlich
# [25] = Anticancer activity against mouse EAC cells xenografted in Swiss albino mouse assessed as percent increase in life span at 5 mg/kg, ip administered for 9 days measured for 30 days; assay type: functional; settings: Ehrlich
# [26] = system: Mus musculus; test: Effect on body weight in Swiss albino mouse xenografted with mouse EAC cells at 10 mg/kg, ip administered for 9 days (reference value: 13.57 +/- 0.4 g); assay type: functional, Ehrlich
# [27] = Anticancer activity against mouse EAC cells xenografted in Swiss albino mouse assessed as tumor volume at 5 mg/kg, ip administered for 9 days measured after 14 days (reference value: 12.15 +/- 0.5 ml); assay type: functional, Ehrlich
# [28] = Anticancer activity against mouse EAC cells xenografted in Swiss albino mouse assessed as packed cell volume at 5 mg/kg, ip administered for 9 days measured after 14 days […] (reference value: 2.62 +/- 0.5 ml); assay type: functional, Ehrlich
# [29] = Anticancer activity against mouse EAC cells xenografted in Swiss albino mouse assessed as viable tumor cell count at 5 mg/kg, ip administered for 9 days measured after 14 days by trypan blue incorporation method (reference value: 7.30 +/- 0.6 10^7/ml); assay type: functional, Ehrlich
# [30] = Anticancer activity against mouse EAC cells xenografted in Swiss albino mouse assessed as mean survival time at 10 mg/kg, ip administered for 9 days measured for 30 days (reference value: 12.8 +/- 0.7 days); assay type: functional, Ehrlich
# [31] = Anticancer activity against mouse EAC cells xenografted in Swiss albino mouse assessed as percent increase in life span at 10 mg/kg, ip administered for 9 days measured for 30 days; assay type: functional; settings: Ehrlich
# [32] = system: Escherichia coli; test: Induction of DNA cleavage of Escherichia coli pUC18 at 50 ug/ml by agarose gel electrophoresis
# [33] = system: Escherichia coli; test: Induction of DNA cleavage of Escherichia coli pUC18 at 100 ug/ml by agarose gel electrophoresis
compound,measurement,setting,value
Cc1cccc(-n2cc(COC(=O)c3cc4ccccc4n3Cc3cn(-c4cccc(C)c4C)nn3)nn2)c1C,MIC,[1],> 150 µg/mL
same,MIC,[2],> 150 µg/mL
same,MIC,[3],> 150 µg/mL
same,MIC,[4],> 150 µg/mL
same,IC50,[5],> 200 µM
same,IC50,[6],> 200 µM
same,IC50,[7],14.1 µM
O=C(OCc1cn(-c2cccc(C(F)(F)F)c2)nn1)c1cc2ccccc2n1Cc1cn(-c2cccc(C(F)(F)F)c2)nn1,Activity,[8],5.08 mL
same,Activity,[9],0.86 mL
same,Activity,[10],5.31 ×10⁷ /ml
same,Activity,[11],7.32 g%
same,Activity,[12],3.78 ×10⁶ /mm3
same,Activity,[13],19.32 ×10³ /mm3
same,Activity,[14],53.7 IU/L
same,Activity,[15],109.03 IU/L
same,Activity,[16],7.02 mg/dL
same,Activity,[17],9.3 g%
same,Activity,[18],4.12 ×10⁶ /mm3
same,Activity,[19],16.32 ×10³ /mm3
same,Activity,[20],45.18 IU/L
same,Activity,[21],98.41 IU/L
same,Activity,[22],5.96 mg/dL
same,MIC,[1],1.17 µg/mL
same,MIC,[2],> 150 µg/mL
same,MIC,[3],> 150 µg/mL
same,MIC,[4],2.34 µg/mL
same,IC50,[5],13.3 µM
same,IC50,[6],9.89 µM
same,IC50,[7],9.08 µM
same,Activity,[23],11.83 g
same,MST,[24],17.23 days
same,ILS at 5 mg/kg,[25],14.2%
same,Activity,[26],9.7 g
same,Activity,[27],9.32 mL
same,Activity,[28],1.63 mL
same,Activity,[29],6.27 ×10⁷ /ml
same,MST,[30],22.56 days
same,ILS at 10 mg/kg,[31],34.1%
COc1ccc(-n2cc(COC(=O)c3cc4ccccc4n3Cc3cn(-c4ccc(OC)cc4)nn3)nn2)cc1,MIC,[1],> 150 µg/mL
same,MIC,[2],> 150 µg/mL
same,MIC,[3],9.38 µg/mL
same,MIC,[4],> 150 µg/mL
same,IC50,[5],100 µM
same,IC50,[6],56.1 µM
same,IC50,[7],43.9 µM
COc1ccc(-n2cc(COC(=O)c3cc4ccccc4[nH]3)nn2)cc1,MIC,[1],> 150 µg/mL
same,MIC,[2],> 150 µg/mL
same,MIC,[3],4.69 µg/mL
same,MIC,[4],> 150 µg/mL
same,IC50,[5],16.2 µM
same,IC50,[6],16.1 µM
same,IC50,[7],42.5 µM
O=C(OCc1cn(-c2ccccc2Br)nn1)c1cc2ccccc2[nH]1,MIC,[1],> 150 µg/mL
same,MIC,[2],> 150 µg/mL
same,MIC,[3],> 150 µg/mL
same,MIC,[4],> 150 µg/mL
same,IC50,[5],38.8 µM
same,IC50,[6],17.3 µM
same,IC50,[7],> 200 µM
Cc1cccc(-n2cc(COC(=O)c3cc4ccccc4[nH]3)nn2)c1C,MIC,[1],> 150 µg/mL
same,MIC,[2],4.69 µg/mL
same,MIC,[3],> 150 µg/mL
same,MIC,[4],> 150 µg/mL
same,IC50,[5],17.1 µM
same,IC50,[6],30.3 µM
same,IC50,[7],15.3 µM
CCCCc1ccc(-n2cc(COC(=O)c3cc4ccccc4n3Cc3cn(-c4ccc(CCCC)cc4)nn3)nn2)cc1,MIC,[1],> 150 µg/mL
same,MIC,[2],> 150 µg/mL
same,MIC,[3],> 150 µg/mL
same,MIC,[4],> 150 µg/mL
same,IC50,[5],66.9 µM
same,IC50,[6],42.8 µM
same,IC50,[7],> 200 µM
CCCCc1ccc(-n2cc(COC(=O)c3cc4ccccc4[nH]3)nn2)cc1,MIC,[1],> 150 µg/mL
same,MIC,[2],> 150 µg/mL
same,MIC,[3],> 150 µg/mL
same,MIC,[4],> 150 µg/mL
same,Activity,[32],Active
same,IC50,[5],28.8 µM
same,IC50,[6],> 200 µM
same,IC50,[7],24.2 µM
Cc1cc(C)cc(-n2cc(COC(=O)c3cc4ccccc4[nH]3)nn2)c1,MIC,[1],> 150 µg/mL
same,MIC,[2],> 150 µg/mL
same,MIC,[3],> 150 µg/mL
same,MIC,[4],> 150 µg/mL
same,Activity,[33],Active
same,IC50,[5],30.5 µM
same,IC50,[6],30.2 µM
same,IC50,[7],12.5 µM
Cc1cc(C)cc(-n2cc(COC(=O)c3cc4ccccc4n3Cc3cn(-c4cc(C)cc(C)c4)nn3)nn2)c1,MIC,[1],> 150 µg/mL
same,MIC,[2],> 150 µg/mL
same,MIC,[3],> 150 µg/mL
same,MIC,[4],> 150 µg/mL
same,IC50,[5],45.2 µM
same,IC50,[6],28.8 µM
same,IC50,[7],50.2 µM
CN[C@@H]1[C@H](O[C@H]2[C@H](O[C@H]3[C@H](O)[C@@H](O)[C@H](N=C(N)N)[C@@H](O)[C@@H]3N=C(N)N)O[C@@H](C)[C@]2(O)C=O)O[C@@H](CO)[C@H](O)[C@H]1O [STREPTOMYCIN],MIC,[1],6.25 µg/mL
same,MIC,[2],6.25 µg/mL
same,MIC,[3],3.12 µg/mL
same,MIC,[4],6.25 µg/mL
O=C(OCc1cn(-c2ccccc2Br)nn1)c1cc2ccccc2n1Cc1cn(-c2ccccc2Br)nn1,MIC,[1],> 150 µg/mL
same,MIC,[2],2.34 µg/mL
same,MIC,[3],> 150 µg/mL
same,MIC,[4],1.17 µg/mL
same,Activity,[33],Active
same,IC50,[5],64.1 µM
same,IC50,[6],35.9 µM
same,IC50,[7],12.1 µM
O=C(OCc1cn(-c2cccc(C(F)(F)F)c2)nn1)c1cc2ccccc2[nH]1,MIC,[1],2.34 µg/mL
same,MIC,[2],> 150 µg/mL
same,MIC,[3],> 150 µg/mL
same,MIC,[4],4.69 µg/mL
same,Activity,[33],Active
same,IC50,[5],16.5 µM
same,IC50,[6],11.7 µM
same,IC50,[7],32.7 µM
